Columns and labels:
[1] = system: bEnd.3 cells; assay: Cell survival rate by tetrazolium blue colorimetry, bEnd.3 cells; assay type: cell-based; conditions: 10 μM (therapeutic dose), FIGS. 13 and 14
Procedure: (§1) FIG. 13: Evaluation of cell survival rate in a Transwell model. A Transwell model of co-incubation of brain microvascular endothelial cells bEnd.3 and glioma cells U87 MG simulates a pathological blood-brain barrier. Axitinib (10 μM) and an Axitinib analog of phosphatidylinositol kinase (PI3K) inhibitor LY294002 (10 μM) were added into the Transwell chamber. After 24 hours, the survival rate of bEnd.3 cells in the Transwell chamber (Panel A) and U87 MG cells in the Transwell outer chamber (Panel B) were detected by tetrazolium blue colorimetry (n=3).
(§2) FIG. 14: Evaluation of Cytotoxicity for Axitinib and an analog thereof. […] Cell survival rate was detected by tetrazolium blue colorimetry. […]
(§3) The physiological blood-brain barrier and the pathological blood-brain barrier as constructed in Method 1 and Method 2 in the Example 1 were used as models, respectively. […] Absorbance at 570 nm was measured with a microplate reader. The survival rate of cells was calculated according to the following formula: Survival rate of cells (%)=(absorbance value of a test group/absorbance value of a control group)×100%
(§4) In addition, bEnd.3 cells and U87 MG glioma cells were used as model cells to evaluate the cytotoxicity of Axitinib and an Axitinib analog of phosphatidylinositol kinase (PI3K) inhibitor LY294002 with the tetrazolium blue colorimetric method. […] Absorbance at 570 nm was measured with a microplate reader.

[2] = system: U87 MG glioma cells; assay: Cell survival rate by tetrazolium blue colorimetry, U87 MG cells; assay type: cell-based; conditions: U87MG cells, 10 μM (therapeutic dose); FIGS. 13 and 14
Procedure: as §1, §2, §3, §4

[3] = system: pathological blood-brain barrier; assay: Evans blue permeation into the brain after treatment, model of Parkinson's disease; assay type: in vivo, C57/BL6 mice; conditions: Axitinib 10 mg/kg tail vein 7 days; levodopa 20 mg/kg intraperitoneally 10 days; vs Parkinson's control; FIGS. 26 and 27
[4] = system: model of Parkinson's disease; assay: Movement time within 2 minutes, model of Parkinson's disease; assay type: in vivo, C57/BL6 mice; conditions: Axitinib 10 mg/kg 7 days; levodopa 20 mg/kg 10 days; vs Parkinson's control; FIG. 28
Procedure: After the treatment was accomplished, movement time within 2 minutes (walking, lifting of both forelimbs, washing face, hair grooming and the like) was recorded for each of the test groups (n=5).
After the Axitinib treatment and the levodopa treatment was accomplished, movement time within 2 minutes (walking, lifting of both forelimbs, washing face, hair grooming and the like) was recorded for each of the test groups.

[5] = system: tyrosine hydroxylase; assay: Striatum tyrosine hydroxylase immunohistochemistry, model of Parkinson's disease; conditions: Axitinib 10 mg/kg 7 days; levodopa 20 mg/kg 10 days; FIG. 29

Row | SMILES | Cytotoxicity [1] | Cytotoxicity [2] | Amount of Evans blue permeated into the brain [3] | Dyskinesia (movement time within 2 minutes) [4] | Expression of striatum tyrosine hydroxylase [5]
1 | O=c1cc(N2CCOCC2)oc2c(-c3ccccc3)cccc12 [LY294002] | do not produce significant cytotoxicity | do not produce significant cytotoxicity | – | – | –
2 | N[C@@H](Cc1ccc(O)c(O)c1)C(=O)O [levodopa] | – | – | reduced to varied degrees | significantly alleviated | significantly up-regulated
